Structures can show the parent of a compound that is named as a salt.
Assays:
Assay type in all cases: physicochemical
[1] = Visible fluorescence under short (254 nm) and long (360 nm) ultraviolet light; settings: in distilled water; visually in dark, 9 watt UV lamp at 6 inches
Description: All three tracer substances Riboflavin, Folic Acid and Quinine have unique molecular structures that enable them to mix into base solutions with varying polar and non polar charges. Studies by the authors of the current embodiment have also shown that the substances show an affinity for organic matter residue (e.g. proteins, fats, oils, soil, mineral deposits, etc.). Riboflavin (B2),Folic Acid (B9) and Quinine are approved food additives (Codex General Standard for Food Additives, Codex STAN 192; Code of Federal Regulations Title 21 Sec. 184.1695; Sec. 73.450; Sec. 104.20, Sec. 101.9 and Sec. 172.575). […] Experiments by the inventors have shown that when Riboflavin and Quinine are combined in solution the two GRAS or food additive fluorophores fluoresce synergistically under long and short wave ultraviolet light. [table]

[2] = Detection sensitivity of tracers by UV fluorescence and spectrophotometer; settings: for sensitivity of spectrophotometer absorption and transmission detection: tracers vs control samples
Description: One method of detecting the presence of the food grade vitamin tracer(s) is by exciting the mixture, treated area or sample swab with ultraviolet light so that the vitamins fluoresce. Riboflavin fluorescence is the identifier for visual observations. Folic Acid fluoresces, but not in the visible spectrum. The color of light is related to the wavelength or frequency of the light. Visible light—to which our eyes are most sensitive—falls in the wavelength range of about 400 to 750 nm. In the absence of visible light and when Riboflavin is excited by long-wave ultraviolet light (maximum lambda=˜365 nm-below the visible spectrum) Riboflavin emits/fluoresces light waves in the visible spectrum (˜450 to 650) which are very distinguishable in the dark when the only other light source is from long (˜365 nm) and midrange (˜312 nm) ultraviolet light. This phenomenon enables visible detection of Riboflavin at levels as low as 1 ppm. It is well know that different compounds have unique absorption and transmission spectra. Another method of quantifying the presence of the food grade vitamin tracers Riboflavin and Folic Acid is by use of a spectrophotometer whereby wavelength absorption and transmission results of known tracers Vs control samples provide characteristic spectra analysis that can be used to determine the absence or presence with sensitivity down to 1 ppm.

[3] = Riboflavin fluorescence persistence in sanitizer and bleach base materials
Description: FIG. 3 is a flow chart showing how the GRAS or food additive composition is mixed with sanitizer(s) or cleaning chemical(s) for visualization of cleaning efficacy so those trained in the art can validate or verify the hygienic condition of equipment or environments after cleaning. The steps involved with making the combined fluorescent additive and base material invention solution include; (1) select the base material and the specific volume that will be used for the application. It is important to know the composition of the base material, its physical properties and establish a set volume. For purposes of this embodiment, base material can be potable water or any of the various sanitation chemicals that has been approved for use in the food, beverage, pharmaceutical, feed industry by appropriate regulatory authorities. The base material will be approximately 95% of the total end product. Potable tap water is an excellent base material for combining with the embodiment composition to produce a solution that can be applied to equipment at any stage of the cleaning process prior final rinse. Quat sanitizers, liquid soaps and detergents have also been shown by the authors to be excellent base materials. Riboflavin mixed easily into solution when 1,000 ppm was added to KayQuat II (>1,000 ppm quaternary ammonia). Fluorescence was intense from day one through day 270 and has not diminished at the time of this publication. Similar tests were performed on Ajax Liquid Soap with Bleach Alternative with similar results.
It should be noted that bench top studies with concentrate hypochlorite solutions have been shown by the authors to rapidly quench Riboflavin fluorescence. […] Highly alkaline ammonia base material produced similar results. The authors were concerned that chlorinated alkaline detergents and/or foaming cleaners would quench the fluorescence of the embodiment composition so tests were performed to determine the effect.

[4] = 2,500 ppm added to a 30% solution of chlorine bleach

Row | Structure (SMILES) | Visual Fluorescence Long Wave (360 nm) [1] | Visual Fluorescence Short Wave (254 nm) [1] | sensitivity of spectrophotometer absorption and transmission detection [2] [ppm] | visible detection level ([2]; excited by long (~365 nm) and midrange (~312 nm) UV in the dark) [ppm] | Fluorescence from day one through day 270 ([3]; 1,000 ppm added to KayQuat II (>1,000 ppm quaternary ammonia)) | fluorescence after 8 hours [3, 4] | fluorescence observed for up to 4 hours [3, 4]
1 | Cc1cc2nc3c(=O)[nH]c(=O)nc-3n(C[C@H](O)[C@H](O)[C@H](O)CO)c2cc1C [50 ppm Riboflavin USP in distilled water, Riboflavin] | Moderate | Very Slight | – | – | – | – | –
2 | Nc1nc2ncc(CNc3ccc(C(=O)N[C@@H](CCC(=O)O)C(=O)O)cc3)nc2c(=O)[nH]1 [Folic Acid] | – | – | 1 | – | – | – | –
3 | C=C[C@H]1C[N@@]2CC[C@H]1C[C@H]2[C@H](O)c1ccnc2ccc(OC)cc12 [Quinine Sulfate, Dihydrate] | Moderate | Slight | – | – | – | – | –
4 | Cc1cc2nc3c(=O)[nH]c(=O)nc-3n(C[C@H](O)[C@H](O)[C@H](O)CO)c2cc1C [Riboflavin] | – | – | 1 | 1 | intense | diminished completely | Slight

— patent US12594354B2, “Compositions for visualization of cleaning efficacy and product coverage” (priority 2011, dated 2026)
